Assay results: BindingDB's records for doi:10.7270/Q20K28JQ (Dupont Pharmaceuticals, 1996)

Biological target: T1, Sterol O-acyltransferase 1 (Rattus norvegicus, UniProt O70536)
T1 sequence (O70536 whole entry): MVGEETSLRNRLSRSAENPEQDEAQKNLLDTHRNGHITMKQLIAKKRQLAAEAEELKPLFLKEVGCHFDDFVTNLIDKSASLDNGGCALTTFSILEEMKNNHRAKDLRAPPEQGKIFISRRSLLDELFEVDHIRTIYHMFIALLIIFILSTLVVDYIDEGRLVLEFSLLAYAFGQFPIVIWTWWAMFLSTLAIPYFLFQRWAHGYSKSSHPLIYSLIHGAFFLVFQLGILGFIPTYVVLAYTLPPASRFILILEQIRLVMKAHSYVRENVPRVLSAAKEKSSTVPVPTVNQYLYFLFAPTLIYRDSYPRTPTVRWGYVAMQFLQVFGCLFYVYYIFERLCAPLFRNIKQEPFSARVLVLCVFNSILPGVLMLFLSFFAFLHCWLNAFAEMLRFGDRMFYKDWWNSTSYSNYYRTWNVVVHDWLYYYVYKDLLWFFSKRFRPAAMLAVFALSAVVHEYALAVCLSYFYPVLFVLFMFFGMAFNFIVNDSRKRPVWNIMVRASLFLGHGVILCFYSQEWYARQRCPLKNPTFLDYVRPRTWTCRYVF
Assay: ChEBML_28359
From the text: In vitro inhibition of rat liver microsomal Acyl coenzyme A:cholesterol acyltransferase

SMILES: CN(C(=O)c1ccc(C#N)cc1)C1N(C)C(c2ccc(C#N)cc2)=NC1(C(F)(F)F)C(F)(F)F (stereo not drawn)
- IC50: 1900 nM

SMILES: CN(C(=O)c1ccc(C#N)cc1)[C@H]1N(C)C(c2ccc(C#N)cc2)=NC1(C(F)(F)F)C(F)(F)F
- IC50: 1000 nM

SMILES: CN(C(=O)c1ccc(C#N)cc1)[C@@H]1N(C)C(c2ccc(C#N)cc2)=NC1(C(F)(F)F)C(F)(F)F
- IC50: 55000 nM
